Measurements taken from patent US20090118337A1, “Methods and compositions for treating inflammation” (priority 2005, published 2009).
Entries after “also recorded” stand apart in the source; their conditions may differ.

How the values were obtained:
IL-8 = IL-8 secretion of cells grown with I172; format: cell-based, human; details: cells grown with I172, day 3
Procedure: (§1) At three or four weeks, on day 0, cells are switched to submerged culture (liquid-liquid interface, LLI) and treated with either DMSO 1:1000 (vehicle control, normal cells, Sigma, St. Louis, Mo.), or 20 μM CFTRinh-172 (kindly provided by Alan Verkman) prepared in DMSO, and diluted from a 1:1000 stock. Drugs are added to both the basolateral (1 or 2 ml volume, according to filter size) and the apical side (0.35 or 1.5 ml) and media replenished every 24H. […] At day 3, cells were committed to inflammatory stimulation with TNF IL-1 or PAO1 as indicated below. Cells committed to PAO1 stimulation were switched to serum-free media 24H prior PAO1 stimulation, kept in serum-free media until the end of the experiment, and media replenished every 12H during that time. Serum-free media contained 1:1 DMEM-Ham's F-12, pH. 7.2, L-glutamine 2.5 mM, Penicillin/Streptomycin 100 units/100 μg per ml, gentamicin 50 μg/ml, amphotericin B 1.25 μg/ml from Gibco, Invitrogen Corporation, Carlsbad, Calif.; fluconazole 2 μg/ml (DIFLUCON®, Pfizer); transferrin 5 μg/ml, hydrocortisone 5 μM, insulin 5 μg/ml, endothelial cell growth supplement 20 μg/mil, and bovine serum albumin 1 mg/ml from Sigma, St. Louis, Mo. Serum-containing media had the same antibiotics present as the serum-free media. Antibiotics were not present during PAO1 stimulation.

[1] = tested on: amiloride-sensitive sodium conductance; details: cells grown with 20 μM I172; cited from earlier work
Smad3 = Smad3 expression in cells grown with I172; format: cell-based, human; details: cells grown with I172, day 3
Procedure: as §1

RhoA = assay: Activated RhoA in cells grown with I172; format: cell-based, human; details: cells grown with I172, day 3
Procedure: as §1

[2] = tested on: well differentiated airway epithelial cells; details: 20 μM I172; cited from earlier work
[3] = tested on: interaction between PPARγ and other transcription factors; assay: Interaction of PPARγ with other transcription factors in well differentiated airway epithelial cells treated with I172; format: cell-based, human; details: I172 20 uM for 72 hr; particularly following stimulation with TNFα/IL1β
Procedure: Transcription Factor Arrays: TranSignal TF-TF Interaction Array I (Panomics) was processed according to the manufacturer's instructions. Nuclear extracts from 16HBEo-sense and antisense cells were incubated with biotin-labeled double-stranded oligonucleotides. PPARγ was immunoprecipitated with 3 μg of monoclonal antibody and Dynabeads (Dynal), which are magnetic protein G beads. Free cis-elements and non-specific binding proteins were washed away. PPARγ associated biotin-labeled probes were eluted from the beads and hybridized to TranSignal Protein/DNA array membranes. The arrays were blocked and incubated with Streptavidin-HRP and developed with a chemiluminescent detection system.
In order to test the impact of CFTR deficiency on the interaction of PPAR-γ with other transcription factors, we treated well differentiated airway epithelial cells grown at the ALI with I172 (20 uM), an inhibitor of CFTR activity, continuously for 72 hr prior to preparation of nuclear extracts or stimulation. […] This model allows one to compare, in well-differentiated airway epithelial cells that have identical genetic endowment at all loci, the effect of CFTR inhibition on various cellular processes. […] During the course of these experiments, cells from the airways of a patient with CF of genotype ΔF508/ΔF508, obtained at transplant, became available and were cultured at the air-liquid interface.

NF-κB = NF-κB luciferase reporter gene assay in 16HBEo- cell pairs stimulated with PAO1; format: cell-based, human; details: PAO1 stimulation, FIG. 2
Procedure: Cell lines: 16HBE-S and 16HBE-AS cells were grown in EMEM supplemented with 10% fetal bovine serum, 2 mM L-glutamine, 100 units/100 μg per ml of penicillin-streptomycin and 400 μg/ml G-418 as previously described.
Reporter Gene Assays: Cells were seeded in 24-well tissue culture dishes 24 hours before transfection. 20 ug luciferase plasmid and 10 ug Renilla plasmid were mixed into 2 mls serum-free DMEM. NFκB luciferase and AP-1 plasmids were purchased from BD Biosciences CLONTECH. pRLTK was used as an internal control for transfection efficiency.
300 ul Lipofectamine PLUS reagent (Invitrogen) was mixed with 200 ul serum-free DMEM. The PLUS reagent and plasmid were incubated for 15 minutes at room temperature. 100 ul Lipofectamine was added to 2.4 ml serum-free DMEM.
The lipofectamine and the DNA-PLUS solutions were mixed and incubated for an additional 15 minutes. The transfection mix was diluted into 20 mls of serum-free DMEM. 250 ul of diluted transfection mix was added to each well and the cells were incubated for 3 hours. Cells were lysed and the lysates assayed for luciferase activity.
A final stock concentration of 10 mM troglitazone (Cayman Chemical) was dissolved in DMSO and diluted to various concentrations. DMSO was added to the cells as a control. […]

[4] = tested on: CF mice challenged with M57-15 P. aeruginosa; assay: Acute Pseudomonas challenge model, CF mice (BAL inflammatory response); format: in vivo; details: pretreated by gavage, BAL 24 hours after P. aeruginosa challenge
Procedure: Pioglitazone inhibits the inflammatory response in CF mice to acute administration of Pseudomonas: Mice pretreated with pioglitazone or vehicle by gavage, then challenged with prior to challenge with M57-15 P. aeruginosa, underwent BAL for inflammatory response outcome measures 24 hours after challenge. Cell counts, cytokine values, and body weight were recorded. […] CF mice treated with vehicle had marked increase in inflammatory response compared to WT mice treated with vehicle, as previously reported for untreated mice (FIGS. 12-14).
In order to test the therapeutic potential of PPARγ agonists in CF animals, we utilized the acute pseudomonas challenge model in CF and non-CF mice, because it was the closest mimic of the acute pseudomonas challenge applied to the epithelial cells in culture. We administered pioglitazone by gavage because this is one of the two PPARγ agonists available for human use. […] However, the dose used in these studies was high compared to conventional human doses, on a weight basis, and the drug was administered prior to challenge, a luxury that may not be available for many patients with CF.

[5] = high dose, CF; cited from earlier work

O=C(O)c1ccc(/C=C2\SC(=S)N(c3cccc(C(F)(F)F)c3)C2=O)cc1 [I172]
basal and stimulated secretion of IL-8 (IL-8): increased basal and stimulated secretion of IL-8
amiloride-sensitive sodium conductance [1]: do not display increased amiloride-sensitive sodium conductance
Smad3 expression (Smad3): decreased Smad3 expression
activated RhoA (RhoA): increased activated RhoA
cell morphology by electron microscopy [2]: no decrease in cell viability or change in cell morphology
cell viability [2]: no decrease in cell viability; also recorded: without compromising cell viability
interaction between PPARγ and other transcription factors [3]: less interaction

Cc1c(C)c2c(c(C)c1O)CCC(C)(COc1ccc(CC3SC(=O)NC3=O)cc1)O2 (single isomer, unassigned; (+)) [troglitazone, (+)-5[[4-[(3,4-dihydro-6-hydroxy-2,5,7,8-tetramethyl-2H-1-benzopyran-2-yl)methoxy]phenyl]methyl]-2,4thiazolidinedione]
activation of NF-κB driven luciferase activity (NF-κB): significantly inhibited

CCc1ccc(CCOc2ccc(CC3SC(=O)NC3=O)cc2)nc1 (centres unmarked) [pioglitazone, 5-[4-[2-(5-ethylpyridin-2-yl)ethoxyl]benzyl]thiazolidine-2,4-dione]
inflammatory response (BAL cell counts, cytokine values, body weight) in CF mice [4]: significant reduction of the inflammatory response; also recorded: In two of the three experiments, pioglitazone limited the inflammatory response; also recorded: significant reduction in inflammatory response

CC(C)Cc1ccc(C(C)C(=O)O)cc1 (centres unmarked) [ibuprofen]
incidence of gastrointestinal hemorrhage [5]: increased incidence
rate of decline of pulmonary function [5]: slowed
